Assay results published in the NIST ThermoML archive (doi:10.1016/j.jct.2016.10.023).
Numbers after ± are expanded uncertainties.

Assay: xn = mol fraction of the nth substance listed
Settings: Constant-volume piezometry

**Q.** Which mass density (463.15 K, 1134 kPa, Gas, x1 = 0.8) does the source give for `CCCCC` [pentane] + CCCO here?
**A.** The mass density was 22.59 ± 0.07 kg/m3.

**Q.** What about the mass density (463.15 K, 1296 kPa, Gas, x1 = 0.2) of the same molecule?
**A.** The mass density was 25 ± 0.08 kg/m3.

**Q.** What about the mass density (463.15 K, 1450 kPa, Gas, x1 = 0.5) of the same molecule?
**A.** The mass density was 30.07 ± 0.09 kg/m3.

**Q.** What about the mass density (463.15 K, 1641 kPa, Gas, x1 = 0.8) of the same molecule?
**A.** Its mass density is 36.79 ± 0.11 kg/m3.

**Q.** And the mass density (463.15 K, 1866 kPa, Gas, x1 = 0.5)?
**A.** Its mass density is 40.6 ± 0.13 kg/m3.

**Q.** And the mass density (463.15 K, 2150 kPa, Gas, x1 = 0.5)?
**A.** Its mass density is 51.24 ± 0.16 kg/m3.

**Q.** And the mass density (463.15 K, 2308 kPa, Gas, x1 = 0.8)?
**A.** Its mass density is 58.58 ± 0.18 kg/m3.

**Q.** What about the mass density (463.15 K, 2637 kPa, Gas, x1 = 0.8) of the same molecule?
**A.** Its mass density is 74 ± 0.24 kg/m3.

**Q.** And the mass density (463.15 K, 2727 kPa, Gas, x1 = 0.9)?
**A.** Its mass density is 83.62 ± 0.29 kg/m3.

**Q.** And the mass density (463.15 K, 3075 kPa, Liquid, x1 = 0.5)?
**A.** The mass density was 452.77 ± 0.91 kg/m3.

**Q.** And the mass density (463.15 K, 3080 kPa, Gas, x1 = 0.8)?
**A.** The mass density was 106.71 ± 0.34 kg/m3.

**Q.** And the mass density (463.15 K, 3117 kPa, Liquid, x1 = 0.9)?
**A.** The mass density was 355.23 ± 0.72 kg/m3.

**Q.** What about the mass density (463.15 K, 3523 kPa, Liquid, x1 = 0.2) of the same molecule?
**A.** Its mass density is 549.04 ± 1.1 kg/m3.

**Q.** What about the mass density (463.15 K, 3571 kPa, Liquid, x1 = 0.5) of the same molecule?
**A.** Its mass density is 459.88 ± 0.93 kg/m3.

**Q.** And the mass density (463.15 K, 4516 kPa, Liquid, x1 = 0.5)?
**A.** Its mass density is 469.76 ± 0.95 kg/m3.

**Q.** What about the mass density (463.15 K, 5048 kPa, Liquid, x1 = 0.9) of the same molecule?
**A.** The mass density was 408.62 ± 0.83 kg/m3.

**Q.** What about the mass density (463.15 K, 5052 kPa, Liquid, x1 = 0.9) of the same molecule?
**A.** Its mass density is 408.62 ± 0.83 kg/m3.

**Q.** What about the mass density (463.15 K, 5310 kPa, Liquid, x1 = 0.8) of the same molecule?
**A.** The mass density was 419.58 ± 0.85 kg/m3.

**Q.** And the mass density (463.15 K, 10451 kPa, Liquid, x1 = 0.5)?
**A.** Its mass density is 508.36 ± 1 kg/m3.

**Q.** And the mass density (463.15 K, 11344 kPa, Liquid, x1 = 0.8)?
**A.** Its mass density is 468.31 ± 0.95 kg/m3.

**Q.** And the mass density (463.15 K, 12276 kPa, Liquid, x1 = 0.2)?
**A.** Its mass density is 583.56 ± 1.2 kg/m3.

**Q.** What about the mass density (463.15 K, 12696 kPa, Liquid, x1 = 0.5) of the same molecule?
**A.** The mass density was 521.23 ± 1.1 kg/m3.

**Q.** And the mass density (463.15 K, 17686 kPa, Liquid, x1 = 0.2)?
**A.** The mass density was 597.23 ± 1.2 kg/m3.

**Q.** What about the mass density (463.15 K, 17835 kPa, Liquid, x1 = 0.8) of the same molecule?
**A.** Its mass density is 497.88 ± 1 kg/m3.

**Q.** What about the mass density (463.15 K, 20989 kPa, Liquid, x1 = 0.5) of the same molecule?
**A.** Its mass density is 550.21 ± 1.1 kg/m3.

**Q.** What about the mass density (463.15 K, 26488 kPa, Liquid, x1 = 0.2) of the same molecule?
**A.** Its mass density is 616.73 ± 1.3 kg/m3.

**Q.** What about the mass density (463.15 K, 26685 kPa, Liquid, x1 = 0.8) of the same molecule?
**A.** The mass density was 522.53 ± 1.1 kg/m3.

**Q.** And the mass density (463.15 K, 33534 kPa, Liquid, x1 = 0.5)?
**A.** Its mass density is 576.47 ± 1.2 kg/m3.

**Q.** And the mass density (463.15 K, 41577 kPa, Liquid, x1 = 0.8)?
**A.** Its mass density is 550.2 ± 1.1 kg/m3.

**Q.** What about the mass density (463.15 K, 41859 kPa, Liquid, x1 = 0.2) of the same molecule?
**A.** Its mass density is 637.82 ± 1.3 kg/m3.

**Q.** And the mass density (463.55 K, Liquid, x1 = 0.8)?
**A.** The mass density was 363.07 ± 2.2 kg/m3.

**Q.** And the mass density (464.15 K, 3225 kPa, Liquid, x1 = 0.9)?
**A.** The mass density was 355.21 ± 0.73 kg/m3.

**Q.** And the mass density (465.15 K, 3139 kPa, Gas, x1 = 0.9)?
**A.** The mass density was 123.69 ± 0.41 kg/m3.

**Q.** And the mass density (466.15 K, 3167 kPa, Gas, x1 = 0.9)?
**A.** Its mass density is 123.69 ± 0.41 kg/m3.

**Q.** And the mass density (466.15 K, Liquid, x1 = 0.5)?
**A.** The mass density was 442.34 ± 2.7 kg/m3.

**Q.** What about the mass density (467.15 K, Liquid, x1 = 0.8) of the same molecule?
**A.** The mass density was 346.37 ± 2.1 kg/m3.

**Q.** What about the mass density (467.15 K, Liquid, x1 = 0.9) of the same molecule?
**A.** Its mass density is 334.99 ± 2 kg/m3.

**Q.** What about the mass density (468.15 K, 2722 kPa, Gas, x1 = 0.5) of the same molecule?
**A.** The mass density was 72.79 ± 0.23 kg/m3.

**Q.** What about the mass density (468.15 K, 3224 kPa, Gas, x1 = 0.9) of the same molecule?
**A.** Its mass density is 123.67 ± 0.46 kg/m3.

**Q.** And the mass density (468.15 K, 3337 kPa, Liquid, x1 = 0.5)?
**A.** The mass density was 442.3 ± 0.89 kg/m3.

**Q.** What about the mass density (468.15 K, 3480 kPa, Liquid, x1 = 0.8) of the same molecule?
**A.** Its mass density is 346.36 ± 0.71 kg/m3.

**Q.** And the mass density (468.15 K, 3796 kPa, Liquid, x1 = 0.8)?
**A.** Its mass density is 362.98 ± 0.74 kg/m3.

**Q.** What about the mass density (469.15 K, 3297 kPa, Gas, x1 = 0.9) of the same molecule?
**A.** Its mass density is 134.47 ± 0.56 kg/m3.

**Q.** And the mass density (469.15 K, 3585 kPa, Liquid, x1 = 0.8)?
**A.** The mass density was 346.34 ± 0.71 kg/m3.

**Q.** And the mass density (470.15 K, 2757 kPa, Gas, x1 = 0.5)?
**A.** The mass density was 72.78 ± 0.23 kg/m3.

**Q.** What about the mass density (470.15 K, 3441 kPa, Liquid, x1 = 0.9) of the same molecule?
**A.** The mass density was 310.06 ± 0.71 kg/m3.

**Q.** What about the mass density (470.15 K, 3577 kPa, Liquid, x1 = 0.9) of the same molecule?
**A.** The mass density was 332 ± 0.76 kg/m3.

**Q.** And the mass density (470.15 K, Liquid, x1 = 0.8)?
**A.** The mass density was 334.76 ± 2 kg/m3.

**Q.** And the mass density (470.15 K, Liquid, x1 = 0.9)?
**A.** The mass density was 313.16 ± 1.9 kg/m3.

**Q.** What about the mass density (470.85 K, Liquid, x1 = 0.9) of the same molecule?
**A.** Its mass density is 302.48 ± 1.8 kg/m3.

**Q.** What about the mass density (471.25 K, Liquid, x1 = 0.9) of the same molecule?
**A.** The mass density was 282.74 ± 1.7 kg/m3.

**Q.** What about the mass density (471.95 K, Liquid, x1 = 0.9) of the same molecule?
**A.** The mass density was 244.86 ± 1.5 kg/m3.

**Q.** And the mass density (472.05 K, Liquid, x1 = 0.9)?
**A.** The mass density was 241.54 ± 1.4 kg/m3.

**Q.** And the mass density (472.15 K, Liquid, x1 = 0.9)?
**A.** Its mass density is 237.12 ± 1.4 kg/m3.

**Q.** What about the mass density (472.65 K, Liquid, x1 = 0.8) of the same molecule?
**A.** The mass density was 316.17 ± 1.9 kg/m3.

**Q.** What about the mass density (473.15 K, 846 kPa, Gas, x1 = 0.5) of the same molecule?
**A.** The mass density was 15.56 ± 0.05 kg/m3.

**Q.** And the mass density (473.15 K, 1166 kPa, Gas, x1 = 0.8)?
**A.** Its mass density is 22.58 ± 0.07 kg/m3.

**Q.** And the mass density (473.15 K, 1339 kPa, Gas, x1 = 0.2)?
**A.** The mass density was 24.99 ± 0.08 kg/m3.

**Q.** What about the mass density (473.15 K, 1500 kPa, Gas, x1 = 0.5) of the same molecule?
**A.** Its mass density is 30.05 ± 0.09 kg/m3.

**Q.** What about the mass density (473.15 K, 1696 kPa, Gas, x1 = 0.8) of the same molecule?
**A.** The mass density was 36.78 ± 0.11 kg/m3.

**Q.** And the mass density (473.15 K, 1943 kPa, Gas, x1 = 0.5)?
**A.** The mass density was 40.58 ± 0.13 kg/m3.

**Q.** And the mass density (473.15 K, 2238 kPa, Gas, x1 = 0.5)?
**A.** The mass density was 51.21 ± 0.16 kg/m3.

**Q.** What about the mass density (473.15 K, 2408 kPa, Gas, x1 = 0.8) of the same molecule?
**A.** Its mass density is 58.55 ± 0.18 kg/m3.

**Q.** And the mass density (473.15 K, 2703 kPa, Gas, x1 = 0.5)?
**A.** The mass density was 67.68 ± 0.21 kg/m3.

**Q.** And the mass density (473.15 K, 2775 kPa, Gas, x1 = 0.8)?
**A.** The mass density was 73.97 ± 0.24 kg/m3.

**Q.** What about the mass density (473.15 K, 2808 kPa, Gas, x1 = 0.5) of the same molecule?
**A.** Its mass density is 72.77 ± 0.23 kg/m3.

**Q.** What about the mass density (473.15 K, 2888 kPa, Gas, x1 = 0.9) of the same molecule?
**A.** Its mass density is 83.58 ± 0.28 kg/m3.

**Q.** What about the mass density (473.15 K, 3309 kPa, Gas, x1 = 0.8) of the same molecule?
**A.** The mass density was 106.65 ± 0.35 kg/m3.

**Q.** And the mass density (473.15 K, 3339 kPa, Liquid, x1 = 0.5)?
**A.** The mass density was 418.35 ± 0.85 kg/m3.

**Q.** What about the mass density (473.15 K, 3349 kPa, Gas, x1 = 0.9) of the same molecule?
**A.** The mass density was 123.64 ± 0.38 kg/m3.

**Q.** What about the mass density (473.15 K, 3414 kPa, Gas, x1 = 0.9) of the same molecule?
**A.** The mass density was 134.44 ± 0.6 kg/m3.

**Q.** What about the mass density (473.15 K, 3511 kPa, Gas, x1 = 0.9) of the same molecule?
**A.** Its mass density is 164.35 ± 0.84 kg/m3.

**Q.** What about the mass density (473.15 K, 3553 kPa, Gas, x1 = 0.9) of the same molecule?
**A.** Its mass density is 189.91 ± 1.4 kg/m3.

**Q.** What about the mass density (473.15 K, 3564 kPa, Gas, x1 = 0.9) of the same molecule?
**A.** Its mass density is 202.87 ± 3.2 kg/m3.
